Data reported in US20050202511A1, “AMP-activated protein kinase (AMPK) inhibitor screening assay” (priority 2002, published 2005).

Tests used:
AMPK = test: Activation of AMPK (data not shown); type: biochemical; conditions: read-out: concentration giving half-maximal activation
AMPK-γ2 CBS3-4 construct = molecular target: T1, AMPK-γ2 CBS3-4 construct (Homo sapiens, UniProt Q9UGJ0); test: Displacement of AMP by AMP-S (competitive binding assay)
T1 construct: the C-terminal pair (CBS3-4, residues 430-556); made in house; host or cells: E. coli BL21 (DE3), vector pGEX-KG
Experimental: (§1) Various concentrations of [^14C]-AMP, [γ^32P] […] Reactions were stopped by spotting 10 ìl onto a Millipore MF Filter Membrane disc and rapidly washing under high vacuum with 1 ml of ice-cold TBS. Radioactivity was determined on the filters by scintillation counting. Non-specific binding (which was trivial) was determined by performing the assay with GST as a control, and was subtracted. […] Data were fitted to the binding models given in the text, using GraphPad Prism 3. Estimates of parameters resulting from fits are quoted in the text and Table 1±standard error, and the curves shown in figures are theoretical curves obtained using those estimates.

[1] = molecular target: wild type cystathionine â-synthase (Homo sapiens, UniProt P35520); conditions: read-out: half-maximal effect (activation); cited from earlier work
[2] = molecular target: T2, cystathionine â-synthase CBS domain pair D444N (Homo sapiens, UniProt P35520, D444N); test: Filter binding assay, GST-CBS domain fusion
T2 construct: 416-551 of cystathionine â-synthase; made in house; host or cells: E. coli BL21 (DE3)
Description: (§2) Finally, DNA encoding the C-terminal CBS domain pair from the enzyme cystathionine â-synthase was cloned and expressed.
(§3) For IMPDH2, DNAs encoding residues 112-232 or the full-length protein (1-514) were amplified using human liver cDNA (Clontech) as template, and cloned into pHAT20 (Clontech) using 5′-AgeI and 3′-KpnI sites added to the primers. For the other constructs, DNAs encoding residues 582-840 of CLC2, or 416-551 of cystathionine â-synthase, were amplified using human liver cDNA as template, and cloned into pGEX-KG as above using 5′-BamHI and 3′-XhoI sites added to the primers. All mutations were created using the Stratagene QuikChange Site-directed Mutagenesis system.
as §1

[3] = molecular target: T3, cystathionine â-synthase CBS1-2 (WT) (Homo sapiens, UniProt P35520); test: Filter binding assay, GST-CBS domain fusion; conditions: single-site model
T3 construct: 416-551 of cystathionine â-synthase; made in house; host or cells: E. coli BL21 (DE3)
Description: as §2, §3, §1

[4] = molecular target: cystathionine â-synthase D444N mutant (Homo sapiens, UniProt P35520, D444N); conditions: concentrations of SAM up to 300 μM; cited from earlier work

T1 sequence (Q9UGJ0 430-556): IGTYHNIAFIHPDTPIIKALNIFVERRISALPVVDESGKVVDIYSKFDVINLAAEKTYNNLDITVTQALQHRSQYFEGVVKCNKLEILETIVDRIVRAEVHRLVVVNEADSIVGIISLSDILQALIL

increase in Kd relative to wild type [2] [fold]	Kd ([2]; single-site model) [µM]	Kd [3] [µM]	SMILES	EC50 (AMPK) [µM]	Kd fold lower than the Kd of CBS3-4 for AMP (AMPK-γ2 CBS3-4 construct) [fold]	Kd (AMPK-γ2 CBS3-4 construct; read-out: Kd from single site competitive binding model) [µM]	EC50 [1] [µM]	activation [4]
			Nc1ncnc2c1ncn2[C@@H]1O[C@H](COP(O)(O)=S)[C@@H](O)[C@H]1O [AMP-S, adenosine 5′-O-monothiophosphate]	3.1	2	48 ± 12		
15	510 ± 70	34	C[S+](CC[C@H](N)C(=O)O)C[C@H]1O[C@@H](n2cnc3c(N)ncnc32)[C@H](O)[C@@H]1O (some centres unmarked) [S-adenosyl methionine]				~20	not significantly activated
